Test results reported in patent publication US20230386637A1, “Polymorphisms for Predicting Treatment Response to Antipsychotic Drugs and Identifying New Drug Targets” (Northwestern University, priority 2018, published 2023).

Assays:
mouse prefrontal cortex = settings: subeffective dose of SB269970 with subeffective dose of lurasidone; awake freely moving mice; cited from earlier work
[1] = in vivo; cited from earlier work
[2] = test system: acutely psychotic SCZ patients; experiment: Pearl 1 and Pearl 2 six-week randomized placebo-controlled lurasidone trials, GWAS sample; type: in vivo, human
Method: The clinical trials, subjects, and genotyping. The two clinical trials used for this analysis are both six-week, randomized, double-blind, lurasidone, placebo-controlled, multicenter registration trials, of DSM-IV acutely psychotic SCZ patients (Meltzer et al., 2011b; Nasrallah et al., 2013b). Patients who met TRS criteria were excluded. There were four fixed-dose treatment arms: lurasidone 40 and 120 mg/day, another atypical APD, olanzapine, 15 mg/day, and placebo (Pearl 1) (Meltzer et al., 2011b) and lurasidone 40, 80, and 120 mg/day, and placebo (Pearl 2) (Nasrallah et al., 2013b). The percentages of patients who achieved the a priori determined response: >20% improvement in ΔPANSS-T, was 61% in both the Pearl 1 and 2 studies. A total of 171/63 Caucasian and 131/54 AA for lurasidone/placebo-treated patients consented to participate in the genetic study. Ethnicity was validated as described below.
Evaluation of treatment response. The primary measure of efficacy, ΔPANSS-Total, was the difference between baseline and last observation carried forward (LOCF) for those with at least one PANSS rating after baseline. Results could be pooled across drug dosage arms because clinical change was not dose related (data not presented). The intention-to-treat (ITT) population included 157, 73, and 156 patients who received 40, 80, and 120 mg/day doses of lurasidone, respectively. Subjects within the 30th percentiles for greatest or least improvement in PANSS-Total (referred to as best and worst responders, hereafter) were included in a secondary analysis as previously done for iloperidone (Lavedan et al., 2009).
Population stratification. […] Population stratification and separation was employed throughout the following analyses. This process yielded 234 Caucasians, 171 and 63 in the lurasidone- and placebo-treated groups, respectively. There were […], 131 and 54 in the lurasidone- and placebo groups, respectively. Adjustment using the top three PCs within each ethnic group was applied to the association tests. The QQ plots indicated no marked deviations of the observed distributions from the expected null distributions with genome inflation factor=1.00 for both ethnic groups (FIG. 1c, d). Both Kolmogorov-Smimov and Shapiro-Wilk tests indicated ΔPANSS-T followed the normal distribution with skewness and kurtosis indices between-1 and +1. Therefore, no subjects had to be excluded from the analysis.

[3] = test system: acutely psychotic SCZ patients; experiment: PEARL 1, 2 and PEARL 3 six-week placebo-controlled lurasidone trials, GWAS subjects of the meta-analysis; type: in vivo, human
Source text: Participants. The three clinical trials (Loebel et al., 2013a; Meltzer et al., 2011a; Nasrallah et al., 2013) used in this analysis were six-week, randomized, double-blind, placebo-controlled, multicenter registration trials, of DSM-IV acutely psychotic SCZ patients. The primary measure of efficacy, ΔPANSS-TOT, was the difference between baseline and last observation carried forward (LOCF) for those with at least one PANSS rating at, or after two weeks of treatment, (ΔPANSS-TOTLOCF6WK=PANSSTOTLOCF6WK-PANSS-TOTBaseline). The overall mean percentage of patients who achieved a priori determined response: ≥20% improvement in ΔPANSS-TOTLOCF6WK, was 61% in the PEARL 1, 2 and 3 studies. A total of 587 subjects with valid treatment response data and verified race from two ethnic populations, EUR and AFR, gave written informed consent to participate in genetics study (368 of 545 (67.5% with EUR ancestry and 219 of 403 (54.3% with AFR ancestry). These trials included a small number of patients randomized to treatment with olanzapine (PEARL 1) or quetiapine (PEARL 3). There were too few subjects with genetic data to include them as a separate group in this analysis.
PEARL 3 was considered an independent dataset due to a significant difference in PANSS-TOTBaseline, inclusion of a higher dose of lurasidone (160 mg/d), and an unequal variance, compared to PEARL 1/2, in ΔPANSS-TOTLOCF6WK by Leven test (Table 1). Samples from the corresponding placebo groups of all three trials were pooled together due to a relatively small sample size per trial and absence of significant differences in demographic and clinical data. Thus, three groups (PEARL 1+2, PEARL 3 and Placebo) per ethnicity were independently examined for quality control (QC), PCA for genetic architectures, and GWAS analyses before determining summary statistics at the individual SNP level. Both Kolmogorov-Smimov and Shapiro-Wilk tests indicated ΔPANSS-TOTLOCF6WK followed a normal distribution with skewness and kurtosis indices between −1 and +1. Therefore, no subjects were excluded from the analysis.

[4] = African ancestry, Pearl 1, 2, n=124
[5] = African ancestry, Pearl 3, n=34
[6] = European ancestry, Pearl 1, 2, n=165
[7] = European ancestry, Pearl 3, n=99

For `CC1CCN(CC[C@H]2CCCN2S(=O)(=O)c2cccc(O)c2)CC1` [SB269970], the “effect on lurasidone-induced dopamine efflux” value (mouse prefrontal cortex) is listed as “potentiated”.
In the case of `O=C1[C@@H]2[C@H]3CC[C@H](C3)[C@@H]2C(=O)N1C[C@@H]1CCCC[C@H]1CN1CCN(c2nsc3ccccc23)CC1` [lurasidone], the side effect profile [1] is given as “relatively benign side effect profile”, the “PANSS anxiety/depression Change (LOCP)” value ([2]; African-Americans, n=131) is given as −3.3 ± 4.1 and the “PANSS disorganization Change (LOCF)” value ([2]; African-Americans, n=131) is given as −4.0 ± 4.4. The “PANSS excited Change (LOCF)” value ([2]; African-Americans, n=131) was −1.2 ± 4.0, the “PANSS negative Change (LOCF)” value ([2]; African-Americans, n=131) was −4.2 ± 4.6 and the “PANSS positive Change (LOCF)” value ([2]; African-Americans, n=131) was −5.3 ± 4.4. For the same compound, the “PANSS total Change (LOCF)” value ([2]; African-Americans, n=131) was −18.0 ± 16.3, the “PANSS anxiety/depression Change (LOCP)” value ([2]; Caucasians, n=171) was −2.1 ± 4.2 and the “PANSS disorganization Change (LOCF)” value ([2]; Caucasians, n=171) was −4.0 ± 4.2. The “PANSS excited Change (LOCF)” value ([2]; Caucasians, n=171) was −1.4 ± 3.7, the “PANSS negative Change (LOCF)” value ([2]; Caucasians, n=171) was −3.3 ± 4.8 and the “PANSS positive Change (LOCF)” value ([2]; Caucasians, n=171) was −5.1 ± 4.9. The “PANSS total Change (LOCF)” value ([2]; Caucasians, n=171) was −15.9 ± 17.0, the “CGI Change (LOCF)” value ([2]; Caucasians, n=171, lurasidone 40/80/120 mg, baseline to LOCF, mean ± SD) was −1.0 ± 1.0 and the “percentages of patients who achieved the a priori determined response: >20% improvement in ΔPANSS-T” value ([2]; both the Pearl 1 and 2 studies) was 61%. The “% change of Psychopathology PANSE_NEG” value [3, 4] was −13.44(22.75) %, the “% change of Psychopathology PANSS_POS” value [3, 4] was −25.80(24.91) % and the “% change of Psychopathology PANSS_TOT” value [3, 4] was −16.55(17.79) %. For the same compound, the “Δ change of Psychopathology PANSS_NEG” value [3, 4] was −3.26(4.82), the “Δ change of Psychopathology PANSS_POS” value [3, 4] was −5.15(4.93) and the “Δ change of Psychopathology PANSS_TOT” value ([3]; African ancestry, Pearl 1, 2, n=124, lurasidone 40/80/120 mg/d) was −15.88(16.97). The “% change of Psychopathology PANSE_NEG” value [3, 5] was −15.66(22.26) %, the “% change of Psychopathology PANSS_POS” value [3, 5] was −30.04(22.51) % and the “% change of Psychopathology PANSS_TOT” value [3, 5] was −22.47(19.05) %. The “Δ change of Psychopathology PANSS_NEG” value [3, 5] was −3.85(4.88), the “Δ change of Psychopathology PANSS_POS” value [3, 5] was −5.71(4.35) and the “Δ change of Psychopathology PANSS_TOT” value ([3]; African ancestry, Pearl 3, n=34, lurasidone 80/160 mg/d) was −21.95(18.15). The “% change of Psychopathology PANSS_NEG” value [3, 6] was −13.44(22.75) %, the “% change of Psychopathology PANSS_POS” value [3, 6] was −25.80(24.91) % and the “% change of Psychopathology PANSS_TOT” value [3, 6] was −16.55(17.79) %. The “Δ change of Psychopathology PANSS_NEG” value [3, 6] was −3.26(4.82), the “Δ change of Psychopathology PANSS_POS” value [3, 6] was −5.15(4.93) and the “Δ change of Psychopathology PANSS_TOT” value ([3]; European ancestry, Pearl 1, 2, n=165, lurasidone 40/80/120 mg/d) was −15.88(16.97). For the same compound, the “% change of Psychopathology PANSS_NEG” value [3, 7] was −15.66(22.26) %, the “% change of Psychopathology PANSS_POS” value [3, 7] was −30.04(22.51) % and the “% change of Psychopathology PANSS_TOT” value [3, 7] was −22.47(19.05) %. For the same compound, the “Δ change of Psychopathology PANSS_NEG” value [3, 7] was −3.85(4.88), the “Δ change of Psychopathology PANSS_POS” value [3, 7] was −5.71(4.35) and the “Δ change of Psychopathology PANSS_TOT” value ([3]; European ancestry, Pearl 3, n=99, lurasidone 80/160 mg/d) was −21.95(18.15). For the same compound, the “overall mean percentage of patients who achieved a priori determined response: ≥20% improvement in ΔPANSS-TOTLOCF6WK” value ([3]; PEARL 1, 2 and 3 studies) was 61%.
